# Results taken from patent publication US9670156B2, “Crystal form III of (S)-oxiracetam, preparation method and use thereof” (Chongqing Runze Pharmaceutical Company Limited, priority 2013, dated 2017).
# Assays:
# [1] = parameters: species or system Beagle dogs; details: dog, in vivo, po
# [2] = parameters: species or system Beagle dogs; details: dog, in vivo; for AUCO-∞ / T1/2 / Tmax / bioavailability of crystal form I and III compared: po
# Text: Base on the existing LC-MS method for determination of (S)-oxiracetam in a biological sample, 6 healthy Beagle dogs are used in the experiment. They are weighted 8-10 kg, and divided into two groups of three. They are used to observe the bioavailability of the different crystal forms of (S)-oxiracetam after oral administration to the dogs. The pharmacokinetics of the crystal forms I and III of (S)-oxiracetam in the dogs are studied. And oxiracetam is used as reference preparation to evaluate whether the bioavailability of crystal forms I and III are equivalent. The bioequivalence is evaluated by calculating the pharmacokinetic parameters. Results: The main pharmacokinetic parameters of the crystal forms I and III of (S)-oxiracetam in the Beagle dogs are as follows: Tmax are (1.561±0.398) and (1.498±0.3988), Cmax are (198.076±80.462) and (186.205±50.321) […], respectively; T1/2 are (0.915±0.125) and (0.909±0.112) h, respectively; and AUCO-∞ are (456.268±85.567) and (436.364±75.204) […], respectively.
# [3] = Dissolution in aqueous solution compared with other crystal forms; type: physicochemical; details: compared with other crystal forms of (S)-oxiracetam
smiles,measurement,setting,value
"NC(=O)CN1C[C@@H](O)CC1=O [crystal form I, (S)-4-hydroxy-2-oxo-1-pyrrolidine acetamide]",Cmax,[1],198 ± 80.5 µg/mL
same,AUCO-∞,[2],456268 ± 85567 µg·h/mL
same,T1/2,[2],54.9 ± 7.5 min
same,Tmax,[2],1.561±0.398
same,bioavailability of crystal form I and III compared,[2],exactly the same
"NC(=O)CN1C[C@@H](O)CC1=O [crystal form III, (S)-4-hydroxy-2-oxo-1-pyrrolidine acetamide]",Cmax,[1],186 ± 50.3 µg/mL
same,bioavailability,[2],high bioavailability
same,AUCO-∞,[2],436364 ± 75204 µg·h/mL
same,T1/2,[2],54.5 ± 6.72 min
same,Tmax,[2],1.498±0.3988
same,bioavailability of crystal form I and III compared,[2],exactly the same
same,dissolution in aqueous solution,[3],dissolves fast
